Data published in patent US20100160267A1, “Treatment of Inflammatory Bowel Disease With 2-Methylene-19-Nor-Vitamin D Compounds” (WISCONSIN ALUMNI RESEARCH FOUNDATION, priority 2003, published 2010).
Marks after values point to notes of the source that are not given here.

How the values were obtained:
IL-10 KO mice = test: Colitis development in vitamin D deficient IL-10 KO mice, compound given in the diet; format: in vivo, mice (C57BL/6); settings: 2-MP 720 ng/d; for Incidence (# with colitis/n): incidence defined as SI/BW % of greater than 6.5, vitamin D deficient for 5 weeks, then in the diet for the remainder of 9-10 weeks: 1,25(OH)2D3 5 ng/d; for Incidence (# with colitis/n) / SI/BW (small intestine weight / body weight, all mice in the group): 2-MD 0.12 ng/d; for SI/BW (small intestine weight / body weight, all mice in the group): wildtype C57BL/6 values are 5-6, in the diet: 1,25(OH)2D3 5 ng/d; for Development of colitis symptoms (in words): IL-10 KO mice, 2-MD 0.12 ng/d in the diet
Excerpt: Recently a number of transgenic animals have been developed in which IBD symptoms occur spontaneously. One of the best animal models for Crohn's disease is the IL-10 knockout (KO) mouse (Kuhn et al. 1993, Mac Donald 1994). In conventional animal facilities, the IL-10 KO mice develop enterocolitis within 5-8 weeks of life (Kuhn et al. 1993). Approximately 30% of the IL-10 KO mice die following the development of severe anemia and weight loss (Kuhn et al. 1993). […] In addition mice raised in specific pathogen free facilities develop milder disease which doesn't result in the death of the mice (Kuhn et al. 1993). There are limitations involved in studying IL-10 KO mice as a model of IBD. If vitamin D is a regulator of IL-10 production then the results in this animal model may not represent […] what may happen in a “normal” immune response. However patients with Crohn's disease show similar symptoms, have depressed IL-10 production, and have been successfully treated with IL-10 (Narula et al. 1998).
(§1) Vitamin D deficient IL-10 KO mice were randomly distributed into one of 4 groups. Controls remained vitamin D deficient for the entire 9-10 weeks of the experiment. Mice treated with 1α,25-dihydroxyvitamin D3 (hereinafter “1,25(OH)2D3”) were vitamin D deficient for 5 weeks and then received 5 ng/d in the diet for the remainder of the experiment. 2-MP treated mice were vitamin D deficient for 5 weeks and then received 720 ng/d in the diet for the remainder of the experiment. 2-MD treated mice were vitamin D deficient for 5 weeks and then received 0.12 ng/d in the diet for the remainder of the experiment. VDR KO IL10KO mice were bred with VDR KO mice and the double IL10/VDR KO mice are compared here.

IL-10 knock-out mice = settings: cited from earlier work
[1] = Serum calcium and body weight of treated vitamin D deficient IL-10 KO mice; format: in vivo, mice (C57BL/6); settings: in the diet: 1,25(OH)2D3 5 ng/d, 2-MP 720 ng/d, 2-MD 0.12 ng/d
Procedure: as §1

Structure (SMILES)	Incidence (# with colitis/n) (IL-10 KO mice)	SI/BW (small intestine weight / body weight, all mice in the group) (IL-10 KO mice)	Prevention of IBD (in words) (IL-10 knock-out mice)	BW (body weight) [1]	Serum Calcium [1]	Development of colitis symptoms (in words) (IL-10 KO mice)
C=C1/C(=C\C=C2/CCC[C@]3(C)[C@@H]([C@H](C)CCCC(C)(C)O)CC[C@@H]23)C[C@@H](O)C[C@@H]1O [1,25(OH)2D3, 1α,25-dihydroxyvitamin D3, reference compound]	1/28^c	5.8 ± 0.3^b %	can prevent IBD	20.8 ± 0.5^c g	8.9 ± 0.3^a mg %	
C=C1[C@H](O)CC(=C/C=C2\CCC[C@]3(C)C([C@@H](C)CCCC(C)(C)O)CC[C@@]23C)C[C@H]1O (stereo partly drawn) [2-MD, 2-methylene-19-nor-20(S)-1α,25-dihydroxyvitamin D3]	0/9^c	5.3 ± 0.1^b %		20.8 ± 1.0^c g		effective at inhibiting and/or preventing the development of colitis symptoms
C=C1[C@H](O)CC(=C/C=C2\CCC[C@]3(C)C(C(C)C)CC[C@@]23C)C[C@H]1O (stereo partly drawn) [2-MP, 1α-hydroxy-2-methylene-19-nor-homopregnacalciferol]	0/8^c	5.4 ± 0.3^b %		20.2 ± 0.5^c g		effective at inhibiting and/or preventing the development of colitis symptoms
